Series [1] can be described thus: Chemical stability of GHB as a function of pH (GBL formation). To be noted: aqueous GHB compositions.
Series [2] can be described thus: Maximum solubility of GHB as a function of pH of the aqueous medium. The series is classed as physicochemical. The method, then:
It will be understood that the maximum solubility of GHB is affected by the pH of the aqueous medium. For example, at about pH 4, the maximum amount of Na•GHB that can be dissolved is about 450 mg/ml.

As for `O=C(O)CCCO` [GHB, gamma-hydroxybutyrate], the “pH at which GBL begins to form” value in series [1] is reported as at most 6. In addition, in series [2] (750 mg/ml GHB, aqueous medium), the “minimal pH that will dissolve 750 mg/ml GHB” value was around 6.8.

In the case of `O=C([O-])CCCO.[Na+]` [Na•GHB, sodium gamma-hydroxybutyrate], the “maximum amount that can be dissolved” value in series [2] (aqueous medium at about pH 4) is given as “about 450 mg/ml”.
